Test results published in ChEMBL document CHEMBL1201862, “PubChem BioAssay data set” (2004).
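Compound exposure: 48 hours, 5 concentrations, 96-well plates. The concentration for 50% growth inhibition is given as GI50.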 Activity calls are given as the source filed them. No stated cut-off is given here; in the data, active = GI50 up to about 1.1 µM and inactive = higher.

Key:
Assay in all cases: DTP human tumour cell line panel, 48 h
[1] = system: HCC 2998
[2] = system: MDA-N
[3] = system: RPMI-8226
[4] = system: KM12
[5] = system: SK-OV-3
[6] = system: M14
[7] = system: HT-29
[8] = system: 786-0
[9] = system: MDA-MB-435
[10] = system: SK-MEL-5
[11] = system: HL-60
[12] = system: SK-MEL-2
[13] = system: LOX IMVI
[14] = system: TK-10
[15] = system: NCI-H23
[16] = system: SF-539
[17] = system: HOP-62
[18] = system: UACC-257
[19] = system: SF-268
[20] = system: HOP-92

Row | Structure (SMILES) | GI50 [1] | GI50 [2] | GI50 [3] | GI50 [4] | GI50 [5] | GI50 [6] | GI50 [7] | GI50 [8] | GI50 [9] | GI50 [10] | GI50 [11] | GI50 [12] | GI50 [13] | GI50 [14] | GI50 [15] | GI50 [16] | GI50 [17] | GI50 [18] | GI50 [19] | GI50 [20]
1 | CN1C/C(=C\c2cccs2)C2=NN(c3ccccc3)C(c3cccs3)C2C1 (configuration not stated) | 6.21 µM (inactive) | 1.59 µM (inactive) | 3.59 µM (inactive) | 4.35 µM (inactive) | > 73.3 µM (inactive) | 3.91 µM (inactive) | 3.14 µM (inactive) | 3.49 µM (inactive) | 1.61 µM (inactive) | 11.9 µM (inactive) | 1.59 µM (inactive) | 25.5 µM (inactive) | 5.08 µM (inactive) | 31.6 µM (inactive) | > 100 µM (inactive) | 17.4 µM (inactive) | 11.1 µM (inactive) | 5.92 µM (inactive) |  | 
2 | N#Cc1c2ccc([N+](=O)[O-])cc2c(=O)n2c1sc1ccc(C(F)(F)F)cc12 |  |  | > 100 µM (inactive) | > 100 µM (inactive) | > 100 µM (inactive) | > 100 µM (inactive) | > 100 µM (inactive) | > 100 µM (inactive) | > 100 µM (inactive) | > 100 µM (inactive) |  |  | > 100 µM (inactive) | > 100 µM (inactive) | > 100 µM (inactive) | > 100 µM (inactive) | > 100 µM (inactive) | > 100 µM (inactive) | > 100 µM (inactive) | > 100 µM (inactive)
3 | CC(=N\c1ccncc1)/C(C)=N/c1ccncc1 | 19 µM (inactive) |  | 21.1 µM (inactive) | 38.3 µM (inactive) | > 100 µM (inactive) | 18.7 µM (inactive) | 19 µM (inactive) | 34.7 µM (inactive) | 29.2 µM (inactive) | 19.5 µM (inactive) | 26.7 µM (inactive) | 20.7 µM (inactive) | 19.5 µM (inactive) | 35.8 µM (inactive) | 16.5 µM (inactive) | 18.7 µM (inactive) | 18.5 µM (inactive) | 36.3 µM (inactive) | 30.4 µM (inactive) | 22.3 µM (inactive)
4 | CC(NC(=O)C1(N)CCCC1)C(=O)O (configuration not stated) | > 100 µM (inactive) | > 100 µM (inactive) | > 100 µM (inactive) | > 100 µM (inactive) | > 100 µM (inactive) | > 100 µM (inactive) | > 100 µM (inactive) | > 100 µM (inactive) | > 100 µM (inactive) | > 100 µM (inactive) | > 100 µM (inactive) | > 100 µM (inactive) | > 100 µM (inactive) | > 100 µM (inactive) | > 100 µM (inactive) |  | > 100 µM (inactive) | > 100 µM (inactive) | > 100 µM (inactive) | 
5 | O=C(c1ccco1)N1CCCN(C(=O)c2ccco2)C1=S |  | > 100 µM (inactive) | > 100 µM (inactive) | 82 µM (inactive) | > 100 µM (inactive) | > 100 µM (inactive) | > 100 µM (inactive) | > 100 µM (inactive) | > 100 µM (inactive) | > 100 µM (inactive) | > 100 µM (inactive) | 46.5 µM (inactive) | > 100 µM (inactive) | > 100 µM (inactive) | > 100 µM (inactive) | 29.4 µM (inactive) | 72.1 µM (inactive) | > 100 µM (inactive) | > 100 µM (inactive) | 
6 | CC(C)/C(Cl)=N\OC(=O)Nc1ccc(S(N)(=O)=O)cc1 | 18 µM (inactive) | 18.2 µM (inactive) | 2.16 µM (inactive) | 18.4 µM (inactive) | 17.7 µM (inactive) | 8.13 µM (inactive) | 22.4 µM (inactive) | 17.3 µM (inactive) |  | 15.9 µM (inactive) | 1.89 µM (inactive) | 18.7 µM (inactive) | 2.89 µM (inactive) | 17.9 µM (inactive) | 19.2 µM (inactive) | 16.8 µM (inactive) | > 42.6 µM (inactive) | 17.4 µM (inactive) | 23.9 µM (inactive) | 5.25 µM (inactive)
7 | CN1C=Cc2nccc3cc4c(c1c23)OCO4 | 4.03 µM (inactive) | 2.27 µM (inactive) | 1.04 µM (active) | 2.59 µM (inactive) | 8.39 µM (inactive) | 3.56 µM (inactive) | 2 µM (inactive) | 1.61 µM (inactive) | 3.25 µM (inactive) | 2.06 µM (inactive) | > 20.3 µM (inactive) | 3.18 µM (inactive) | 6.25 µM (inactive) | 3.64 µM (inactive) | 2.1 µM (inactive) |  | 1.82 µM (inactive) | 2.53 µM (inactive) | 3.06 µM (inactive) | 
8 | COCCOC(=O)NCn1cc(-c2ccccc2)nn1 | > 100 µM (inactive) |  | > 100 µM (inactive) | > 100 µM (inactive) |  | > 100 µM (inactive) | > 100 µM (inactive) | > 100 µM (inactive) | > 100 µM (inactive) | > 100 µM (inactive) | > 100 µM (inactive) | > 100 µM (inactive) | > 100 µM (inactive) | > 100 µM (inactive) | > 100 µM (inactive) | > 100 µM (inactive) | > 100 µM (inactive) | > 100 µM (inactive) |  | > 100 µM (inactive)
9 | CCCC(=O)Oc1ccc(/C=N/NC(N)=S)nc1 | > 100 µM (inactive) |  | > 100 µM (inactive) | > 100 µM (inactive) | > 100 µM (inactive) | 98.6 µM (inactive) | > 100 µM (inactive) | 37 µM (inactive) |  | > 100 µM (inactive) | 45.1 µM (inactive) | > 100 µM (inactive) | 54.3 µM (inactive) | > 100 µM (inactive) | > 100 µM (inactive) | 36.5 µM (inactive) | > 100 µM (inactive) | > 100 µM (inactive) | 60 µM (inactive) | > 100 µM (inactive)
10 | COc1ccc2[nH]cc(CCNC(=O)[C@](O)(Cc3cn(C)c4ccccc34)[C@@]3(O)OCC(O)C3O)c2c1 (some centres not stated) | > 100 µM (inactive) |  | 39.4 µM (inactive) | > 100 µM (inactive) | > 100 µM (inactive) | > 100 µM (inactive) | > 100 µM (inactive) | > 100 µM (inactive) |  | > 100 µM (inactive) | 32.1 µM (inactive) | > 100 µM (inactive) | > 100 µM (inactive) | > 100 µM (inactive) | > 100 µM (inactive) | 40.4 µM (inactive) | > 100 µM (inactive) | > 100 µM (inactive) | 82.6 µM (inactive) | 50.2 µM (inactive)
11 | COc1ccc2c(c1)O[C@@H]1c3ccc(OC)cc3OC[C@H]21 | 35.2 µM (inactive) |  | 26.9 µM (inactive) | 28.4 µM (inactive) | 57 µM (inactive) | 26.9 µM (inactive) | > 10 µM (inactive) | 25.4 µM (inactive) |  | 17.4 µM (inactive) | 19.3 µM (inactive) | 23 µM (inactive) | 17.9 µM (inactive) | 35.6 µM (inactive) | 23.2 µM (inactive) | 38.1 µM (inactive) | 72.8 µM (inactive) | > 10 µM (inactive) | 38.2 µM (inactive) | 17.1 µM (inactive)
